Data on one compound can be found in patent publication US10881641B2, “Methods and use of compounds that bind to RelA of NF-kB” (Cedars-Sinai Medical Center, priority 2015, dated 2021).

“Also recorded” adds a separate entry of the source.

Experiment [1] has as its system triple-negative breast cancer cell lines. In words: cell proliferation by calorimetric assay (MTT). The format is cell-based. The note with it: FIG. 1A.
The subject of experiment [2] is breast cancer cells. In words: anchorage independent growth assay (colony formation, clonogenic survival). The experiment is classed as cell-based. Conditions: 15 uM CRL1101 added after 24 hours, 14 days, soft agarose, FIG. 1B. How it is done: The effects of CRL1101 on clonogenic survival were analyzed. Base layers consisting of growth medium containing 0.53% low-melting point agarose (Invitrogen) were poured onto 6-well plates and allowed to solidify. Cells were seeded at concentration of 10000/well in triplicate in top layers consisting of growth medium containing 0.32% agarose. After 24 hours, 15, uM of CRL1101 was added. Cells were incubated for 14 days to form visible colonies. The colonies were fixed and stained by 0.05% Crystal violet in 50% methanol.

For experiment [3], the target named is T1, RelA(p65) (Homo sapiens, UniProt Q04206).
T1 construct: endogenous in cells
In words: nuclear localization of RelA by immunofluorescent staining. The experiment is classed as cell-based. The note with it: TNBC cell lines, 20 mM CRL1101 in 1% DMSO, 45 minutes, FIG. 2. Here is the method:
Cells were grown in Dulbecco's modified Eagle medium supplemented with 10% heat-inactivated fetal calf serum and 1% (w/v) penicillin/streptomycin (all purchased from Mediatech Inc, Manassas, Va., USA). Cells were treated with or without 20 mM of CRL1101 in 1% DMSO. Forty five minutes after treatment, cells were fixed with 4% formaldehyde for 10 min and sequentially treated with 0.1% Triton X 100 for 10 min. Cells were blocked in 1% BSA in PBS for 10 min. cells were incubated with anti-Re/A(p65) antibody (1:150, Abeam, Cambridge, UK) in PBS with 1% BSA overnight at 4° C. and a secondary antibody (1:1000 anti-rabbit Alexa 488, Invitrogen, Carlsbad, Calif., USA) for 1 hr in the dark. Analyses were performed using a microscope (Nikon ECLIPSE Ti-U, Nikon, Tokyo, JAPAN).

Experiment [4] concerns MDA-MB-231 cells. In words: xenograft breast cancer model, tumor growth. Conditions: 25 mg/kg/day IP for 4 weeks, compared to vehicle, N=6, FIG. 3. The format is in vivo, athymic mice. Here is the method:
Mice were administrated 25 mg/kg/day of CRL1101 or vehicle IP, as indicated by arrows. Results are given as mean tumor volume +− s.e. […] N=6. Therapeutic efficacy of CRL1101 was tested in xenograft breast cancer model. Briefly, triple-negative breast cancer cells, MDA-MB-231 were used to grow tumor in athymic mice. Mice were treated with 25 mg/kg/day, IP for 4 weeks. The control group was treated with vehicle.

T1 sequence (Q04206 whole entry): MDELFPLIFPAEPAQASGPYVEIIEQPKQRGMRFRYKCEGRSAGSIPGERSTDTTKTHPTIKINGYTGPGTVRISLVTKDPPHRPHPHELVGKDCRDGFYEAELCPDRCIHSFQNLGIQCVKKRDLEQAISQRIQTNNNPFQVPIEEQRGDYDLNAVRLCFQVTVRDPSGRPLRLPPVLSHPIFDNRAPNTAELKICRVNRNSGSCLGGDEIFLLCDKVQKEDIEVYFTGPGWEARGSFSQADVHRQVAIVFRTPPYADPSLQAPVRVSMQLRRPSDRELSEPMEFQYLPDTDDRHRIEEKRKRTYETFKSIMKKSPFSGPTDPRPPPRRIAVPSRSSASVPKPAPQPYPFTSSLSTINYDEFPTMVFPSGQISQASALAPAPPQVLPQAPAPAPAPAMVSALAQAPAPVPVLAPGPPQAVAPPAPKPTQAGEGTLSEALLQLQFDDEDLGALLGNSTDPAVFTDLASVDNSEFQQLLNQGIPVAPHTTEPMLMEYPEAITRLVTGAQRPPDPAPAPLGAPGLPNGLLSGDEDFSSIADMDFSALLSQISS

Take `Cl.O=[N+]([O-])c1cc(S(=O)(=O)CCCN2CCOCC2)ccc1F` [CRL1101]: the IC50 in experiment [1] (all the three TNBC cell lines, MTT, read-out: IC50, inhibition of TNBC cell line proliferation) came out at 20 µM. In experiment [1] (breast cancer cells), the cell proliferation entry was “significantly inhibited”. In addition, the colony formation entry in experiment [2] is given as “significantly inhibited”. Also, the “nuclear localization of RelA” value in experiment [3] is “significantly inhibited”. Further, the “tumor growth (mean tumor volume)” value in experiment [4] is on record as “significant reduction in tumor growth; also recorded: significant (p<0.001) compared to vehicle”.
